From ChEMBL document CHEMBL1136542, “Discovery of N-hydroxy-2-(2-oxo-3-pyrrolidinyl)acetamides as potent and selective inhibitors of tumor necrosis factor-alpha converting enzyme (TACE)” (Bioorg Med Chem Lett, 2003)

Columns and labels:
[1] = target: Disintegrin and metalloproteinase domain-containing protein 17 (Homo sapiens, UniProt P78536); test: Inhibition of TNF-alpha production from LPS stimulated human whole blood.; format: functional, tissue-based
[2] = target: Matrix metalloproteinase-9 (Homo sapiens, UniProt P14780); test: In vitro inhibition of Matrix metalloprotease-9
Sequence of Matrix metalloproteinase-9 (P14780 whole entry): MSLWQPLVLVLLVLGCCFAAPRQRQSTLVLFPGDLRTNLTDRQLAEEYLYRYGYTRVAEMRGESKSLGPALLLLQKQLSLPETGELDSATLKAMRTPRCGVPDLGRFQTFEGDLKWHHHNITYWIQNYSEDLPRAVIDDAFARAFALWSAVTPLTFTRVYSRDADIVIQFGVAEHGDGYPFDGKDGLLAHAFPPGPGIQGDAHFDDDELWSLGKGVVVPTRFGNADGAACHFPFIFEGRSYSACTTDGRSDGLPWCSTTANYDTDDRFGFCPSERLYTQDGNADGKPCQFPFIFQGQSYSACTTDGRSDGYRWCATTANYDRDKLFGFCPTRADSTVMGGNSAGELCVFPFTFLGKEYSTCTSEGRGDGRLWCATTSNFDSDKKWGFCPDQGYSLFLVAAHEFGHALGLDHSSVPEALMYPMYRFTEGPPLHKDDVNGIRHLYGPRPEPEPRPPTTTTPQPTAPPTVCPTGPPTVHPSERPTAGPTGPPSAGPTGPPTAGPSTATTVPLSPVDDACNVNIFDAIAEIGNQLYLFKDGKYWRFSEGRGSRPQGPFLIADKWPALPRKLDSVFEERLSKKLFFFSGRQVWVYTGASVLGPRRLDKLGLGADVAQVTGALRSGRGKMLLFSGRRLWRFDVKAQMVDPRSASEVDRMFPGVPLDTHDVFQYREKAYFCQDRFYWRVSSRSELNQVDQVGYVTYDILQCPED

Interstitial collagenase = target: T1, Interstitial collagenase (Homo sapiens, UniProt P03956); test: In vitro inhibition of Matrix metalloprotease-1.
T1 sequence (P03956 whole entry): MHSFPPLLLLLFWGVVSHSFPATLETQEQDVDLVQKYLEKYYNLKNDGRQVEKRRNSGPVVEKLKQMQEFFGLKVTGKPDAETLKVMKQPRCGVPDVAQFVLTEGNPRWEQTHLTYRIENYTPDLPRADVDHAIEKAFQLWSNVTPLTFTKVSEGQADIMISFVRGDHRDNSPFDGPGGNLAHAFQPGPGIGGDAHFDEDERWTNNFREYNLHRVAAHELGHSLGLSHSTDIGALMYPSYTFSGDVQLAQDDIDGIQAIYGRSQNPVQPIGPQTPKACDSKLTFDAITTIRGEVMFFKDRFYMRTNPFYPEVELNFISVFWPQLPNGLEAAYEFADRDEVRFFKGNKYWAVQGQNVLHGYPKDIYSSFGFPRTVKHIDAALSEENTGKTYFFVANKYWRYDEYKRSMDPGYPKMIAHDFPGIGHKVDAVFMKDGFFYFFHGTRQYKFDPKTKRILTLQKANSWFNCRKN

[3] = target: Disintegrin and metalloproteinase domain-containing protein 17 (Sus scrofa, UniProt O77636); test: In vitro inhibition of TNF-alpha converting enzyme.
Sequence of Disintegrin and metalloproteinase domain-containing protein 17 (Sus scrofa, UniProt O77636) (O77636 whole entry, the tested form may be a part): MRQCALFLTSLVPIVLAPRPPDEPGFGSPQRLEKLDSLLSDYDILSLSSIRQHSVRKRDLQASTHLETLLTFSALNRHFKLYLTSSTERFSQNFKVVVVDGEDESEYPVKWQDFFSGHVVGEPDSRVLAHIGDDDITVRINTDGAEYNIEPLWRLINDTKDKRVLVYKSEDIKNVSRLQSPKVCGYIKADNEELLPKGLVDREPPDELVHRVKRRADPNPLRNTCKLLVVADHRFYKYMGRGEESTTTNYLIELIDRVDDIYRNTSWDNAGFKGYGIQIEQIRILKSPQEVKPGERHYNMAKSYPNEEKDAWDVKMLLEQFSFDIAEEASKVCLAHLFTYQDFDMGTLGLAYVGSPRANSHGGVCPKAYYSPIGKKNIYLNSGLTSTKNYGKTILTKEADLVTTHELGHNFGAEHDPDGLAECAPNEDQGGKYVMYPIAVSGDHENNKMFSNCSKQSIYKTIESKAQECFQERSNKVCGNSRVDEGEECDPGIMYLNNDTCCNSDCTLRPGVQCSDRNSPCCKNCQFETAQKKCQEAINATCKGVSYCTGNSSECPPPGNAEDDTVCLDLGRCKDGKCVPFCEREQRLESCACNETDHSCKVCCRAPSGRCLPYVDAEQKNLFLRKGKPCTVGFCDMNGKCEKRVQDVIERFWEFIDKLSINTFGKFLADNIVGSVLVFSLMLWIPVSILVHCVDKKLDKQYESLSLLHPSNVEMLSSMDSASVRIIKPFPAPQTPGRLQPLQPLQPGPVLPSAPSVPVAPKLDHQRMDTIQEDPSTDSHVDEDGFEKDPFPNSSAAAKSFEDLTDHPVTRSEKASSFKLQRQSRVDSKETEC

[4] = target: 72 kDa type IV collagenase (Homo sapiens, UniProt P08253)
Sequence of 72 kDa type IV collagenase (P08253 whole entry): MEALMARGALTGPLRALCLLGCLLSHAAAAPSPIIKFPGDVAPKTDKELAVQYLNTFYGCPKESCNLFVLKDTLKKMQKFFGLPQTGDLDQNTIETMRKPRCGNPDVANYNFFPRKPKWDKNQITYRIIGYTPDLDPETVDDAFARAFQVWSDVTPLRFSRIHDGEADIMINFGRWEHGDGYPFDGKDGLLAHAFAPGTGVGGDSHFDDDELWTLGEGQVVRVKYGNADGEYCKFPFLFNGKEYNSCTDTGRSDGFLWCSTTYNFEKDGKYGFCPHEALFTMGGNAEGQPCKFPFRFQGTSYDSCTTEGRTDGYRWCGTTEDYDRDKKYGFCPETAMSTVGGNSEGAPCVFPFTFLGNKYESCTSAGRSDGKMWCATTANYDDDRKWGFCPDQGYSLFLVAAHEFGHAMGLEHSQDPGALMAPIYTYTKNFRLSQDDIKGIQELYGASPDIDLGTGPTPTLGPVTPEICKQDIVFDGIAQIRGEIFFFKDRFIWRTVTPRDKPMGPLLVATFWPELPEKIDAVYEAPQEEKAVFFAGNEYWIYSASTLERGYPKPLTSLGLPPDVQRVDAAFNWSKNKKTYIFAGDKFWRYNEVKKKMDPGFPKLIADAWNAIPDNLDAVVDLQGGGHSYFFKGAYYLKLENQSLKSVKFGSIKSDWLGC
Description: In vitro inhibition of Matrix metalloprotease-2

Sequence of Disintegrin and metalloproteinase domain-containing protein 17 (Homo sapiens, UniProt P78536) (P78536 whole entry, the tested form may be a part): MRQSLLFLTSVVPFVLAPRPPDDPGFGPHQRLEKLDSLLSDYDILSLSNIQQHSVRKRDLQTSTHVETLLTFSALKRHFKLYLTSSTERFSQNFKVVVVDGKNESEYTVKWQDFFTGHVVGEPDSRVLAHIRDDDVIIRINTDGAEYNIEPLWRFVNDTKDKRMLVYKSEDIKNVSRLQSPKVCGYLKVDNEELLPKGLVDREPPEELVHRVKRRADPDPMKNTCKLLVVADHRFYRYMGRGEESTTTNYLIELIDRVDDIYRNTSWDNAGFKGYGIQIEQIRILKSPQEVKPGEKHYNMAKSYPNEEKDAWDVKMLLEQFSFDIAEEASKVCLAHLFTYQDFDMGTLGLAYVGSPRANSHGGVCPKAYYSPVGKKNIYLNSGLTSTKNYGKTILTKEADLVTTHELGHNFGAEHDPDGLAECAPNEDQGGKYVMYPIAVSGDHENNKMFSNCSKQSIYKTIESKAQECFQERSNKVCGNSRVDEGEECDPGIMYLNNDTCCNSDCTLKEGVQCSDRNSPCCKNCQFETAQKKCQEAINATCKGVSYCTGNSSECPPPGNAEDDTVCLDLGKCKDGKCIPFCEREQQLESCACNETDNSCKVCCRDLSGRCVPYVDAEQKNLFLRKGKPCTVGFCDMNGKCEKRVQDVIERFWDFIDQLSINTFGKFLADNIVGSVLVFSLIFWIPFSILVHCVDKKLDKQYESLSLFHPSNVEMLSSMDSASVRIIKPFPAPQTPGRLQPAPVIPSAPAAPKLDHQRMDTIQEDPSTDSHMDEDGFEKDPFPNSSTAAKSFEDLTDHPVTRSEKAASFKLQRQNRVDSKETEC

IC50 [1] | Ki [2] | Ki (Interstitial collagenase) | IC50 [3] | Ki [4] | SMILES
840 nM | > 2000 nM | > 5000 nM | < 1 nM | 805 nM | Cc1cc(COc2ccc(N3CC[C@H]([C@H](NC(=O)N4CCOCC4)C(=O)NO)C3=O)cc2)c2ccccc2n1
2400 nM | > 2000 nM | > 5000 nM | 3 nM | > 3000 nM | Cc1cc(COc2ccc(N3CC[C@H]([C@H](O)C(=O)NO)C3=O)cc2)c2ccccc2n1
1560 nM | > 2000 nM | > 5000 nM | 1 nM | 194 nM | CC(=O)N[C@H](C(=O)NO)[C@H]1CCN(c2ccc(OCc3cc(C)nc4ccccc34)cc2)C1=O
> 3000 nM | 1300 nM | > 5000 nM | 12 nM | – | Cc1cc(COc2ccc(N3CC[C@@]([C@H](C)C(=O)NO)(N(C)C)C3=O)cc2)c2ccccc2n1
8700 nM | > 2000 nM | > 5000 nM | 2 nM | > 3000 nM | Cc1cc(COc2ccc(N3CC[C@H]([C@H](C)N(O)C=O)C3=O)cc2)c2ccccc2n1
4800 nM | > 2000 nM | > 5000 nM | 5 nM | > 3000 nM | Cc1cc(COc2ccc(N3CC[C@](N)(CC(=O)NO)C3=O)cc2)c2ccccc2n1
1500 nM | > 2000 nM | > 5000 nM | 7 nM | > 3000 nM | Cc1cc(COc2ccc(N3CC[C@H]([C@@H](C(=O)NO)N(C)C)C3=O)cc2)c2ccccc2n1
> 10000 nM | > 2000 nM | > 5000 nM | 26 nM | > 3000 nM | Cc1cc(COc2ccc(N3CC[C@H]([C@@H](C(=O)NO)N4CCCC4)C3=O)cc2)c2ccccc2n1
420 nM | 291 nM | 788 nM | 1 nM | 324 nM | Cc1cc(COc2ccc(N3CC[C@H]([C@H](NC(=O)OC(C)(C)C)C(=O)NO)C3=O)cc2)c2ccccc2n1
– | > 2000 nM | > 5000 nM | 140 nM | > 3000 nM | CCC[C@@H](C(=O)NO)[C@H]1CCN(c2ccc(OCc3cc(C)nc4ccccc34)cc2)C1=O
1570 nM | > 2000 nM | > 5000 nM | 1 nM | > 1270 nM | Cc1cc(COc2ccc(N3CC[C@H]([C@H](C)C(=O)NO)C3=O)cc2)c2ccccc2n1
> 10000 nM | > 2000 nM | > 5000 nM | 405 nM | > 3000 nM | CCC[C@@H](C(=O)NO)[C@@]1(N)CCN(c2ccc(OCc3cc(C)nc4ccccc34)cc2)C1=O
1700 nM | 1960 nM | > 5000 nM | 2 nM | 446 nM | Cc1cc(COc2ccc(N3CC[C@H]([C@H](N)C(=O)NO)C3=O)cc2)c2ccccc2n1
> 3000 nM | > 2000 nM | > 5000 nM | 4 nM | > 3000 nM | CCC[C@H](C(=O)NO)[C@@]1(N)CCN(c2ccc(OCc3cc(C)nc4ccccc34)cc2)C1=O
> 10000 nM | > 2000 nM | > 5000 nM | 111 nM | > 567 nM | C[C@@H]([C@H]1CCN(c2ccc(OCc3ccccc3)cc2)C1=O)N(O)C=O
4950 nM | > 2000 nM | > 5000 nM | < 1 nM | 1240 nM | Cc1cc(COc2ccc(N3CC[C@H]([C@H](NC(=O)C(C)(C)C)C(=O)NO)C3=O)cc2)c2ccccc2n1
> 10000 nM | > 2000 nM | > 5000 nM | 50 nM | > 3000 nM | Cc1cc(COc2ccc(N3CC[C@H]([C@H](N)C(=O)NO)C3=O)cc2)cc(C)n1
1100 nM | > 2000 nM | > 5000 nM | 2 nM | > 3000 nM | Cc1cc(COc2ccc(N3CC[C@](N)([C@H](C)C(=O)NO)C3=O)cc2)c2ccccc2n1
6830 nM | > 2000 nM | > 1630 nM | 2 nM | > 305 nM | CCCCOC(=O)N[C@H](C(=O)NO)[C@H]1CCN(c2ccc(OCc3cc(C)nc4ccccc34)cc2)C1=O
> 3000 nM | > 2000 nM | > 5000 nM | 52 nM | > 3000 nM | Cc1cc(COc2ccc(N3CC[C@H]([C@@H](C)C(=O)NO)C3=O)cc2)c2ccccc2n1
9100 nM | > 2000 nM | > 5000 nM | 1 nM | 435 nM | Cc1cc(COc2ccc(N3CC[C@H]([C@H](NC(=O)c4ccccc4)C(=O)NO)C3=O)cc2)c2ccccc2n1

SMILES | IC50 [1] | Ki [2] | Ki (Interstitial collagenase) | IC50 [3] | Ki [4]
Cc1cc(COc2ccc(N3CC[C@H]([C@H](NC(=O)OC(C)(C)C)C(=O)NO)C3=O)cc2)cc(C)n1 | > 3000 nM | – | 2240 nM | 6 nM | > 3000 nM
COC(=O)N[C@H](C(=O)NO)[C@H]1CCN(c2ccc(OCc3cc(C)nc4ccccc34)cc2)C1=O | 2650 nM | > 2000 nM | > 5000 nM | < 1 nM | 482 nM
